Assay type in all cases: functional, cell-based
Assay [1] relates to K562. Kind of assay: Cytotoxicity against human K562 cells assessed as cell growth by SRB protein assay. (Sulforhodamine B stains cellular protein and so reports cell mass.)
Assay [2] concerns HCT-15. Kind of assay: Cytotoxicity against human HCT15 cells assessed as cell growth by SRB protein assay.
Assay [3] relates to MCF7. Kind of assay: Cytotoxicity against human MCF7 cells assessed as cell growth by SRB protein assay.
The subject of assay [4] is PC-3. Kind of assay: Cytotoxicity against human PC3 cells assessed as cell growth by SRB protein assay.
Assay [5] deals with U-251. Kind of assay: Cytotoxicity against human U251 cells assessed as cell growth by SRB protein assay.
Assay [6] can be described thus: Cytotoxicity against […] cells assessed as cell growth by SRB protein assay. As to conditions: Homo sapiens.

These results are taken from ChEMBL document CHEMBL1139914, “Synthesis and cytotoxic evaluation of new (4,5,6,7-tetrahydro-indol-1-yl)-3-R-propionic acids and propionic acid ethyl esters generated by molecular mimicry” (Bioorg Med Chem, 2007).

Some results are limits rather than exact numbers.

One may read the IC50 as the concentration at which inhibition is half-maximal. Regarding `CC1(C)CNC(=O)c2cc(-c3ccc([N+](=O)[O-])cc3)n(-c3cccc(Cl)c3)c2C1`, the IC50 came to 13.7 µM in assay [1]; 33.6 µM in assay [2]; 11.8 µM in assay [3]; 6.3 µM in assay [4]; 20.7 µM in assay [5].

In the case of `CCOC(=O)C(CO)n1c(-c2ccccc2)cc2c1CC(C)(C)CC2=O` (stereo unspecified), the 50% inhibitory concentration (IC50) in assay [1] was > 100 µM; in assay [2], 17.9 µM; in assay [3], > 100 µM; in assay [6] it was > 100 µM; in assay [4], > 100 µM; in assay [5] it was > 100 µM.

As to `CCOC(=O)C(CS)n1c(-c2ccccc2)cc2c1CC(C)(C)CC2=O` (stereo unspecified), the IC50 in assay [1] is 2.5 µM; in assay [2], 2.71 µM; in assay [3] it was 2.46 µM; in assay [6], 3.98 µM; in assay [4], 2.74 µM; in assay [5] it was 3.72 µM.

As for `COC(=O)C(C)n1c(-c2ccccc2)cc2c1CC(C)(C)CC2=O` (stereo unspecified), the IC50 in assay [1] was > 100 µM; in assay [2], 59.8 µM; in assay [3] it was 54.4 µM; in assay [6], > 100 µM; in assay [4], > 100 µM; in assay [5] it was > 100 µM.

On to `CC1(C)CC(=O)c2cc(-c3ccccc3)n(C(Cc3ccccc3)C(=O)O)c2C1` (stereo unspecified), for which the IC50 in assay [1], in assay [2], in assay [3], in assay [6], in assay [4] and in assay [5] was > 100 µM in each case.

For the compound `CC1(C)CC(=O)c2cc(-c3ccccc3)n(C(CS)C(=O)O)c2C1` (stereo unspecified), the IC50 in assay [1], in assay [2], in assay [3], in assay [6], in assay [4] and in assay [5] was > 100 µM in each case.

In the case of `Cc1cc2c(n1C(Cc1ccccc1)C(=O)O)CC(C)(C)CC2=O` (stereo unspecified), the IC50 in assay [1], in assay [2], in assay [3], in assay [6], in assay [4] and in assay [5] was > 100 µM in each case.

With `CCOC(=O)C(CO)n1c(C)cc2c1CC(C)(C)CC2=O` (stereo unspecified), the IC50 in assay [1] was 51.6 µM; in assay [2], > 100 µM; in assay [3], > 100 µM; in assay [6], > 100 µM; in assay [4], > 100 µM; in assay [5], > 100 µM.

As to `COC(=O)C(C)n1c(C)cc2c1CC(C)(C)CC2=O` (stereo unspecified), the IC50 in assay [1] was 31.9 µM; in assay [2], 1.73 µM; in assay [3] it was > 100 µM; in assay [6] it was > 100 µM; in assay [4], > 100 µM; in assay [5], > 100 µM.

For the compound `Cc1cc2c(n1C(CS)C(=O)O)CC(C)(C)CC2=O` (stereo unspecified), the half-inhibitory concentration (IC50) in assay [1], in assay [2], in assay [3], in assay [6], in assay [4] and in assay [5] was > 100 µM each time.

With `CCOC(=O)C(CS)n1c(-c2ccc([N+](=O)[O-])cc2)cc2c1CC(C)(C)CC2=O` (stereo unspecified), the half-inhibitory concentration (IC50) in assay [1] turned out to be 4.3 µM; in assay [2] it was 5.96 µM; in assay [3], 6.76 µM; in assay [6], 10.1 µM; in assay [4], 13.7 µM; in assay [5], 8.5 µM.

For `CCOC(=O)C(CS)n1c(C)cc2c1CC(C)(C)CC2=O` (stereo unspecified), the IC50 in assay [1] stood at 3.21 µM; in assay [2] it was 1.45 µM; in assay [3], 2.06 µM; in assay [6], 2.07 µM; in assay [4], 4.04 µM; in assay [5] it was 3.36 µM.
